The subject of one series is Venturia inaequalis. Put plainly: Venturia test (apple)/protective. The class given is in vivo. Particulars: protective, application rate 100 g/ha, evaluation 12 days after inoculation, 100% = no infection. How it is done: Venturia Test (Apple)/Protective
(§1) Solvent: 47 parts by weight of acetone
(§2) Emulsifier: 3 parts by weight of alkylaryl polyglycol ether
(§3) To produce a suitable preparation of active compound, 1 part by weight of active compound is mixed with the stated amounts of solvent and emulsifier, and the concentrate is diluted with water to the desired concentration.
To test for protective activity, young plants are sprayed with the preparation of active compound at the stated application rate. After the spray coating has dried on, the plants are inoculated with an aqueous conidia suspension of the apple pathogen Venturia inaequalis and then remain in an incubation cabin at about 20° C. and 100% relative atmospheric humidity for 1 day.
The plants are then placed in the greenhouse at about 21° C. and a relative atmospheric humidity of about 90%.
Evaluation is carried out 12 days after the inoculation. 0% means an efficacy which corresponds to that of the control, whereas an efficacy of 100% means that no infection is observed.

The test system of series [1] is Erysiphe graminis f.sp. tritici. Description: Erysiphe test (wheat)/protective. It counts as in vivo. Conditions: protective, application rate 250 g/ha, evaluation 7 days after inoculation, 100% = no infection. How it is done:
Erysiphe Test (Wheat)/Protective
(§4) Solvent: 25 parts by weight of N,N-dimethylacetamide
Emulsifier: 0.6 part by weight of alkylaryl polyglycol ether
as §3
To test for protective activity, young plants are sprayed with the preparation of active compound at the stated application rate.
After the spray coating has dried on, the plants are dusted with spores of Erysiphe graminis f.sp. tritici.
The plants are placed in a greenhouse at a temperature of about 20° C. and a relative atmospheric humidity of about 80% to promote the development of mildew pustules.
(§5) Evaluation is carried out 7 days after the inoculation. 0% means an efficacy which corresponds to that of the control, whereas an efficacy of 100% means that no infection is observed.

In a further series the test system is Pyrenophora teres. Description: Pyrenophora teres test (barley)/curative. Conditions: curative, application rate 250 g/ha, evaluation 7 days after inoculation, 100% = no infection. It counts as in vivo. The protocol: Pyrenophora Teres Test (Barley)/Curative
as §4
Emulsifier: 0.6 parts by weight of alkylaryl polyglycol ether
as §3
To test for curative activity, young plants are sprayed with a conidia suspension of Pyrenophora teres. The plants remain in an incubation cabin at 20° C. and 100% relative atmospheric humidity for 48 hours. The plants are then sprayed with the preparation of active compound at the stated application rate.
The plants are placed in a greenhouse at a temperature of about 20° C. and a relative atmospheric humidity of about 80%.
as §5

The next series concerns Podosphaera leucotricha. Description: Podosphaera test (apple)/protective. Conditions: protective, application rate 100 g/ha, evaluation 10 days after inoculation, 100% = no infection. The class given is in vivo. How it is done:
Podosphaera Test (Apple)/Protective
as §1, §2, §3
To test for protective activity, young plants are sprayed with the preparation of active compound at the stated application rate. After the spray coating has dried on, the plants are inoculated with an aqueous spore suspension of the apple mildew pathogen Podosphaera leucotricha. The plants are then placed in a greenhouse at about 23° C. and a relative atmospheric humidity of about 70%.
Evaluation is carried out 10 days after the inoculation. 0% means an efficacy which corresponds to that of the control, whereas an efficacy of 100% means that no infection is observed.

The next series deals with Sphaerotheca fuliginea. Put plainly: Sphaerotheca test (cucumber)/protective. The class given is in vivo. Conditions: protective, application rate 100 g/ha, evaluation 10 days after inoculation, 100% = no infection. How it is done:
Sphaerotheca Test (Cucumber)/Protective
as §1, §2, §3
To test for protective activity, young plants are sprayed with the preparation of active compound at the stated application rate. After the spray coating has dried on, the plants are inoculated with an aqueous spore suspension of Sphaerotheca fuliginea. The plants are then placed in a greenhouse at about 23° C. and a relative atmospheric humidity of about 70%.
Evalution is carried out 10 days after the inoculation. 0% means an efficacy which corresponds to that of the control, whereas an efficacy of 100% means that no infection is observed.

These results are taken from patent US6444612B1, “Use of 5-amino-pyrazol-derivatives for combating micro-organisms” (Bayer Aktiengesellschaft, priority 1998, dated 2002).

Take `CCc1cc(NC(=O)Cc2ccc(-c3ccc(OC(F)(F)F)cc3)cc2)n(C)n1`: in the series on Venturia inaequalis, the Efficacy in % was found to be 96%.
The term melting point denotes the temperature of the solid-liquid transition. `CCOC(=O)c1c(CC)nn(C)c1NC(=O)Cc1ccc(OC)cc1` [Example 1, 4-ethoxycarbonyl-3-ethyl-5-(4-methoxyphenylacetyl)-amino-1-methylpyrazole] came in with a melting point of 112 to 113 °C.
The same measure, in the same setting: to `CCc1nn(C)c(NC(=O)Cc2ccc(Br)cc2)c1Cl` [Example 5, 5-(4-bromophenylacetyl)-amino-4-chloro-3-ethyl-1-methylpyrazole] belongs 167 to 168 °C.
Regarding `CCOC(=O)c1c(CC)nn(C)c1NC(=O)Cc1cccc(Oc2ccc(Cl)cc2)c1` [drawing 282], in series [1], the Efficacy in % is 100%.
Take `CCOC(=O)c1c(CC)nn(C)c1NC(=O)Cc1cccc(Oc2ccc(Cl)cc2)c1` [drawing 283]: in the series on Pyrenophora teres, the Efficacy in % is listed as 100%.
In the series with Podosphaera leucotricha, `CCOC(=O)c1c(CC)nn(C)c1NC(=O)Cc1cccc(Oc2ccc(OC(F)(F)F)cc2)c1` [drawing 284] registered an Efficacy in % of 92%.
In the series with Podosphaera leucotricha, `CCOC(=O)c1c(CC)nn(C)c1NC(=O)Cc1ccc(-c2ccc(OC(F)(F)F)cc2)cc1` [drawing 285] registered an Efficacy in % of 100%.
In turn, `CCc1nn(C)c(NC(=O)Cc2ccc(-c3ccc(OC(F)(F)F)cc3)cc2)c1Cl` [drawing 286] displayed an Efficacy in % in the series with Podosphaera leucotricha of 100%.
`CCOC(=O)c1c(CC)nn(C)c1NC(=O)Cc1ccc(-c2ccc(OC(F)(F)F)cc2)cc1` [drawing 287]: in the series with Sphaerotheca fuliginea, the Efficacy in % was determined as 100%.
On the same count and under the same terms, in the case of `CCc1nn(C)c(NC(=O)Cc2ccc(-c3ccc(OC(F)(F)F)cc3)cc2)c1Cl` [drawing 288] it was 100%.
In turn, `CCOC(=O)c1c(CC)nn(C)c1NC(=O)Cc1cccc(Oc2ccc(OC(F)(F)F)cc2)c1` [drawing 290] registered an Efficacy in % with Venturia inaequalis of 90%.
On the same count and under the same terms, to `CCOC(=O)c1c(CC)nn(C)c1NC(=O)Cc1ccc(-c2ccc(OC(F)(F)F)cc2)cc1` [drawing 291] belongs 93%.
Molecule `CCc1nn(C)c(NC(=O)Cc2ccc(-c3ccc(OC(F)(F)F)cc3)cc2)c1Cl` [drawing 292] had an Efficacy in % with Venturia inaequalis of 96%.
